Laboratory results taken from ChEMBL document CHEMBL1150136, “Limnazine, the first bacterial azine derivative from Bacillus sp. GW90a” (J Nat Prod, 2002).
Activity calls are given as the source filed them.

Tests used:
Format in all cases: functional, organism-based
Chlorella vulgaris = assay: Antialgal activity against Chlorella vulgaris up to 100 ug/mL by agar diffusion test
Staphylococcus aureus = assay: Antibacterial activity against Staphylococcus aureus by agar diffusion test
Chlorella salina = assay: Antialgal activity against Chlorella salina by agar diffusion test
Bacillus subtilis = assay: Antibacterial activity against Bacillus subtilis up to 100 ug/mL by agar diffusion test
Rhizomucor miehei = assay: Antifungal activity against Mucor miehei by agar diffusion test
Chlorella sorokiniana = assay: Antialgal activity against Chlorella sorokiniana by agar diffusion test
Escherichia coli = assay: Antibacterial activity against Escherichia coli up to 100 ug/mL by agar diffusion test

Measured: Activity

Cc1ccc2c(c1)/C(=N\N=C1/CC(C)(C)Oc3ccc(C)cc31)CC(C)(C)O2
inactive: all assays above
